One may read the Km as the concentration of substrate that gives half-maximal velocity. The term pIC50 denotes the negative decadic logarithm of the IC50, by convention in mol/L. Broadly, the pKi is −log10 of the Ki, conventionally taken in molar units.

pIC50, pKi: −log10 of the molar value. “And” between values parts separate entries of the source, which are not always exact repeats. Equal values may be shown once.

The source of these data is patent US7556939B2, “Identification and characterization of racemases, definition of protein signatures, and a test for detecting D-amino acid and for screening molecules capable of inhibiting the activity of racemase, especially proline racemase” (Institut Pasteur, priority 2003, dated 2009).

For one data set, the target named is T1, CsPR (Acetoanaerobium sticklandii, UniProt E3PTZ4).
T1 sequence (E3PTZ4 1-335): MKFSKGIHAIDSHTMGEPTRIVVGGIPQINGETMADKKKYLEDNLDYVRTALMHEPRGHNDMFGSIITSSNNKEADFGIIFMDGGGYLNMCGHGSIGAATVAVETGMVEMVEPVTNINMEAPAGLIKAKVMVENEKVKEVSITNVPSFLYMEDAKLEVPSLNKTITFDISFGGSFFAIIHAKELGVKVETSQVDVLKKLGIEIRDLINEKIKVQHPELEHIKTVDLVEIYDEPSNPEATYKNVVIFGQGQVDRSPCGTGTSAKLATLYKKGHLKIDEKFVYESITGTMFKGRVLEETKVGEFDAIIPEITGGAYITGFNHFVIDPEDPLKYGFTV
The settings on record: reported for the proline racemase of C. sticklandii; cited from earlier work.

In another data set the target is T2, D-AAO (Sus scrofa, UniProt P00371).
T2 construct: purchased Sigma A-5222; host or cells: swine kidney
T2 sequence (P00371 whole entry): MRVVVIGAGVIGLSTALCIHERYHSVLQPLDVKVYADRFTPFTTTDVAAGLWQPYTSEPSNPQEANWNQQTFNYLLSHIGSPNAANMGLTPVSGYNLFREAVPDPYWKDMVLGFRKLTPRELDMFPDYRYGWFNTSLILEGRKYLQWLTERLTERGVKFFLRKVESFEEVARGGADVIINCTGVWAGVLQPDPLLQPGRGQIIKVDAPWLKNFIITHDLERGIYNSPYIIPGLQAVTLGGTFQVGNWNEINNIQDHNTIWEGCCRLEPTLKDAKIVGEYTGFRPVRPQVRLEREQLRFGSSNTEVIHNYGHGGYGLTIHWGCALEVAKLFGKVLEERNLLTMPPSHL
In words: D-AAO/HRP reaction on D-proline in presence of PAC or L-proline. In kind it is biochemical, swine.

For another data set, the system named is TcPRAC enzyme isoforms. The conditions noted are these: span over the enzyme isoforms. As for the experimental part:
(§1) Optical rotation was measured every 5 sec during 10 min and every 5 min to 1 hour. […] Calculations were done using the Kaleïdagraph program. […] Graphic representation and linear curve regression allowed the determination of Ki as [PAC]/[(slope with PAC/slope without PAC)−1]. All reagents were purchased from Sigma.

Data set [1] has as its system non-infected monkey cell cultures.
For data set [2], the target named is T3, TcPRAC (Trypanosoma cruzi, UniProt Q4DA80).
T3 construct: made in house
T3 sequence (Q4DA80 32-423): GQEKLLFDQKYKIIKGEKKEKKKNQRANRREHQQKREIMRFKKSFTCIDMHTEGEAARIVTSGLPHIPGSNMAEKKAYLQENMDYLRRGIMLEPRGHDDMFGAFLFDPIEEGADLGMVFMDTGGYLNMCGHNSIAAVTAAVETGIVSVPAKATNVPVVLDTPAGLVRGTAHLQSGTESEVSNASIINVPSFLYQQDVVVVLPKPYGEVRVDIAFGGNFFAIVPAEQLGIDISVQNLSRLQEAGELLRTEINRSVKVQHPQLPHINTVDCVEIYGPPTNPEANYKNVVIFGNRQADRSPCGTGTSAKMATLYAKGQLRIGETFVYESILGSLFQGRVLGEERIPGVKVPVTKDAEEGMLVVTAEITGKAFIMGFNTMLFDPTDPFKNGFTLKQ
In words: Racemisation inhibition, detection with polarimeter. The data set is classed as biochemical. How it is done: The reaction was stopped by incubating for 10 min at 80° C. and freezing. Water (1 ml) was then added, and the optical rotation was measured in a polarimeter 241 MC (Perkin Elmer, Montigny le Bretonneux, France) at a wavelength of 365 nm, in a cell with a path length of 10 cm, at a precision of 0.001 degree. […] All reagents were purchased from Sigma.

Another data set concerns the target rTcPRACB (Trypanosoma cruzi, UniProt Q868H8). Briefly: Kinetic and inhibition assays of L-proline racemization, polarimetric. In kind it is biochemical. As for the experimental part: (§2) The progress of racemization reaction was monitored polarimetrically, as previously described (13). […] Values obtained were confirmed by using the Kaleïdagraph® program and Michaelis-Menten equation. […] C.
as §1

Another data set concerns the target T4, rTcPRACA (Trypanosoma cruzi, UniProt Q4DA80).
T4 construct: resulting TcPRACA* fragment encoding for the mature proline racemase was purified and cloned; His6 (C); made in house; host or cells: E. coli BL21 (DE3)
The description is as above. In kind it is biochemical. How it is done: as §2, §1

The target in data set [3] is T3, TcPRAC. Briefly: D-AAO/HRP microplate test of racemisation inhibition. In kind it is biochemical. The settings on record: concentration giving 50% inhibition of racemisation. As for the experimental part:
(1) The volumes are indicated for a single well, but duplicates are mandatory. Leave enough raws of the microplate empty for standard and controls to be used in further steps. Distribute the following volumes per well reactions: • a) without inhibitor (Vol=QS 81 μl)
A range of concentrations between 5 mM and 1 mM can be planned for the inhibitor. It should be diluted in sodium acetate buffer 0.2 M pH 6.0.
• (2) Cover the microplate with an adhesive coverlid and leave for […] at 37° C. • (3) At the end of racemisation, 5.5 μl of 0.235M Pop are added in each reaction well of the microplate in order to shift pH from pH6.0 to pH 8.3.
It is used for assessing the amount of D-Proline formed after racemization. The standard range is made in microtubes, as follows:
• (3) Prepare a mixture containing the enzymes (D-AAO/HRP Mix), as follows: The amounts are given for one well, provided that the final volume will be 100 μl with the racemase products or the substrate:
This mixture is kept in the ice until use. • (4) The quantitation reaction starts when 13 μl of D-AAO/HRP mix is added to the reaction well. • (5) The microplate is covered with an adhesive coverlid and it is left in the dark at 37° C. between […] and 2 hours. The reaction can be monitored by eye whenever a color gradient matches the D-amino acid concentration of the standard dilutions. • (6) The microplate is read with a microplate spectrophotometer using a filter of at 490 nm.

Another data set relates to B cell. The settings on record: cited from earlier work.

Sequence of rTcPRACB (Q868H8 whole entry): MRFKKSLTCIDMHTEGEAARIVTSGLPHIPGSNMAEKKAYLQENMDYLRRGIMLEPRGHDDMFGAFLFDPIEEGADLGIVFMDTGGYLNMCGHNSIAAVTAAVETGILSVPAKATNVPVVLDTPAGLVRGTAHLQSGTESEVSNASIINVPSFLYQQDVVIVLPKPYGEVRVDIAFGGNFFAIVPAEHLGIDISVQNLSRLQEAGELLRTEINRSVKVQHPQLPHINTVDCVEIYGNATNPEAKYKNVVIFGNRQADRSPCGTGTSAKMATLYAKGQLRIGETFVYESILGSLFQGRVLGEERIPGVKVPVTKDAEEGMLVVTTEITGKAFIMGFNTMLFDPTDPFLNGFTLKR
T4 sequence (Q4DA80 32-423): as the sequence (Q4DA80 32-423) above

For the compound `O=C(O)[C@@H]1CCCN1` [L-proline], the Michaelis-Menten constant (Km) on CsPR was 2.3 mM; with TcPRAC enzyme isoforms, 29 to 75 mM. The “effect on D-amino-oxidase activity” value on D-AAO (equimolar mixture of D- and L-Proline versus D-Proline alone) is “Inhibits”.
With `O=C(O)c1ccc[nH]1` [PAC, pyrrole-2-carboxylic acid], the “interference with cellular growth” value in [1] was “do not interfere with cellular growth”. The pIC50 against TcPRAC [2] is 3.00; at TcPRAC [3] (10 mM L-Proline), 4.35 and 4.30; at TcPRAC [3] (20 mM L-Proline) it was 3.77; at TcPRAC [3] (40 mM L-Proline), 3.66. Further, the negative-log Ki (pKi) was 5.44 at rTcPRACB and 5.24 on rTcPRACA. For the same compound, on D-AAO (D-Proline 0.1 mM to 40 mM, OD 490 nm), the “influence on DAAO/HRP reaction” value was “does not influence”. Moreover, the “effect of TcPRAC inhibition on TcPRAC B cell mitogenic ability” value in the data set on B cell is listed as “total loss”.
